Literature values, collected in patent publication US20080161385A1, “Composition Inhibiting Sex Hormone-Binding Globulin” (FUJI OIL COMPANY, LIMITED, priority 2004, published 2008).

Test system: SHBG
Conditions: cell test, literature

## O=c1c(-c2ccc(O)cc2)coc2cc(O)cc(O)c12 [genistein]
  Production of SHBG: stimulates production of SHBG
